Results: US20140308733A1, “METHOD FOR INDUCING GERMINATION OF SPORE FORMING BACTERIUM” (CALPIS CO., LTD., priority 2011, published 2014)

Legend:
Assay type in all cases: cell-based
[1] = system: Bacillus licheniformis (NBRC 12200); experiment: Germination induction, change of turbidity (630 nm) of spore suspension; conditions: 300 ppm; for turbidity (630 nm): 37° C., 150 rpm
Description: (§1) It is possible to determine whether spores have germinated, after measuring an OD 630 value (turbidity at 630 nm) of the liquid culture, based on decrease in the value (Literature: Microbiology, (1950), 4, 3, 330-338). Briefly, bacterial cells after culturing are washed with distilled water and diluted with distilled water to OD 630=1.0, which is then mixed with an equal volume of a germination induction solution, and the turbidity at 630 nm is measured by a UV spectrophotometer at room temperature.
(§2) TS culture media (Difco, Trypticase Soy Broth) were inoculated respectively with 11 strains listed in Table 1 and cultured at 50° C. with respect to Geobacillus stearothermophilus NBRC13737 and Aeribacillus pallidus TK6004 (FERM BP-08597), and at 37° C. with respect to the other 9 strains, until respective colonies were established. Then with respect to each of 11 strains, a loop full of a single colony was scratched by a platinum loop and suspended in 500 μL of sterilized water. In 1000 g of water was dissolved 8.0 g of a nutrient agar culture medium (Difco, Nutrient Broth), followed by high pressure steam sterilization (121° C., 15 min) to prepare a plate medium. The nutrient agar culture medium was smeared with each 100 μL of the suspension and cultured at 37° C. for 3 days.
(§3) Then, bacterial cells were suspended using a platinum loop in 500 μL of sterilized water, and the bacterial suspension was subjected to a heat shock at 65° C. for 35 min. Each 100 μL of the heat-shocked bacterial suspension and a not-heat-shocked bacterial suspension were smeared on the TS culture media respectively and cultured at 50° C. or 37° C. for 1 day.
(§4) After confirming the spore formation, the bacterial cells were collected by a bacteria spreader, suspended in 10 mL of sterilized distilled water, and then centrifuged (8340×g, 4° C., 15 min). The supernatant was removed and thereafter the bacterial cells were washed twice with 10 mL of sterilized water. After washing, the bacterial cells were suspended in 5 mL of sterilized water, and the suspension was filtrated by sterilized Kimwipes. The filtrate was centrifuged (8340×g, 4° C., 15 min) to remove the supernatant, and the rest was adjusted to the turbidity (at 630 nm) of 1.0 with sterilized water.
(§5) After dissolving with stirring using a stirring rod with a propeller, filtration sterilization (0.45 μm filter) was conducted to prepare each 600 ppm-solution.
(§6) Five hundred (500) μL of each solution and 500 μL of each bacterial spore suspension were mixed. […] Defining the time point of mixing as the reaction initiation (0 min), and continuing shaking (150 rpm) at 37° C., the turbidity (630 nm) was measured at 10, 20, 30, 40, 50, 60, 90, 120, and 180 min after the reaction initiation.
(§7) Since the turbidity at 630 nm decreases by germination of spores, it has been known that the turbidity at 630 nm can be used to determine the germination rate.

[2] = system: Bacillus licheniformis (NBRC 14206); experiment: as above; conditions: 300 ppm; for turbidity (630 nm): 37° C., 150 rpm
Description: as §1, §2, §3, §4, §5, §6, §7

[3] = system: Bacillus subtilis C-3102 (FERM BP-1096); experiment: Influence of the concentration of germination inducer on turbidity change (Example 2); conditions: for turbidity (630 nm): 37° C., 150 rpm
Description: Next, 500 μL aliquots of bacterial suspension of Bacillus subtilis C-3102 (FERM BP-1096) used in Example 1 were mixed with 500 μL of ferulic acid, or vanillic acid solutions described above, and the mixtures were adjusted to ferulic acid (10 to 600 ppm), or vanillic acid (10 to 1800 ppm) concentrations set forth in Table 2. The concentrations of ferulic acid at the reaction initiation were 10, 100, 300, and 600 ppm, and the concentrations of vanillic acid at the reaction initiation were 10, 100, 300, 600, 1200, and 1800 ppm.
As same as Example 1, defining the time point of mixing the bacterial suspension with the solution of ferulic acid, or vanillic acid as the reaction initiation (0 min), and continuing shaking (150 rpm) at 37° C., the absorbance (630 nm) was measured at 10, 20, 30, 40, 50, 60, 90, 120, and 180 min after the reaction initiation.

[4] = 0 min after reaction initiation
[5] = 10 min after reaction initiation
[6] = 20 min after reaction initiation
[7] = 30 min after reaction initiation
[8] = 40 min after reaction initiation
[9] = 50 min after reaction initiation
[10] = 60 min after reaction initiation
[11] = 90 min after reaction initiation
[12] = 120 min after reaction initiation
[13] = 180 min after reaction initiation

`COc1cc(/C=C/C(=O)O)ccc1O` [Ferulic acid, ferulic acid] was tested, and the “turbidity (630 nm)” value [1, 4] was 0.601, the “turbidity (630 nm)” value [1, 5] was 0.569 and the “turbidity (630 nm)” value [1, 6] was 0.563. The “turbidity (630 nm)” value [1, 7] was 0.543, the “turbidity (630 nm)” value [1, 8] was 0.536 and the “turbidity (630 nm)” value [1, 9] was 0.517. The “turbidity (630 nm)” value [1, 10] was 0.503, the “turbidity (630 nm)” value [1, 11] was 0.460 and the “turbidity (630 nm)” value [1, 12] was 0.417. The “turbidity (630 nm)” value [1, 13] was 0.334, the “germination confirmed by turbidity decrease” value ([1]; up to 180 min) was “the turbidity decreased” and the “turbidity (630 nm)” value [2, 4] was 0.589. The “turbidity (630 nm)” value [2, 5] was 0.583, the “turbidity (630 nm)” value [2, 6] was 0.573 and the “turbidity (630 nm)” value [2, 7] was 0.565. The “turbidity (630 nm)” value [2, 8] was 0.553, the “turbidity (630 nm)” value [2, 9] was 0.547 and the “turbidity (630 nm)” value [2, 10] was 0.530. For the same compound, the “turbidity (630 nm)” value [2, 11] was 0.498, the “turbidity (630 nm)” value [2, 12] was 0.474 and the “turbidity (630 nm)” value [2, 13] was 0.463. For the same compound, the “germination confirmed by turbidity decrease” value ([2]; up to 180 min) was “the turbidity decreased”, the “turbidity (630 nm)” value ([3]; ferulic acid 10 ppm, 0 min after reaction initiation) was 0.584 and the “turbidity (630 nm)” value ([3]; ferulic acid 10 ppm, 10 min after reaction initiation) was 0.563. For the same compound, the “turbidity (630 nm)” value ([3]; ferulic acid 10 ppm, 20 min after reaction initiation) was 0.553, the “turbidity (630 nm)” value ([3]; ferulic acid 10 ppm, 30 min after reaction initiation) was 0.544 and the “turbidity (630 nm)” value ([3]; ferulic acid 10 ppm, 40 min after reaction initiation) was 0.533. The “turbidity (630 nm)” value ([3]; ferulic acid 10 ppm, 50 min after reaction initiation) was 0.519, the “turbidity (630 nm)” value ([3]; ferulic acid 10 ppm, 60 min after reaction initiation) was 0.507 and the “turbidity (630 nm)” value ([3]; ferulic acid 10 ppm, 90 min after reaction initiation) was 0.488. The “turbidity (630 nm)” value ([3]; ferulic acid 10 ppm, 120 min after reaction initiation) was 0.447, the “turbidity (630 nm)” value ([3]; ferulic acid 10 ppm, 180 min after reaction initiation) was 0.353 and the “turbidity (630 nm)” value ([3]; ferulic acid 100 ppm, 0 min after reaction initiation) was 0.583. For the same compound, the “turbidity (630 nm)” value ([3]; ferulic acid 100 ppm, 10 min after reaction initiation) was 0.565, the “turbidity (630 nm)” value ([3]; ferulic acid 100 ppm, 20 min after reaction initiation) was 0.556 and the “turbidity (630 nm)” value ([3]; ferulic acid 100 ppm, 30 min after reaction initiation) was 0.53. The “turbidity (630 nm)” value ([3]; ferulic acid 100 ppm, 40 min after reaction initiation) was 0.52, the “turbidity (630 nm)” value ([3]; ferulic acid 100 ppm, 50 min after reaction initiation) was 0.500 and the “turbidity (630 nm)” value ([3]; ferulic acid 100 ppm, 60 min after reaction initiation) was 0.484. For the same compound, the “turbidity (630 nm)” value ([3]; ferulic acid 100 ppm, 90 min after reaction initiation) was 0.448, the “turbidity (630 nm)” value ([3]; ferulic acid 100 ppm, 120 min after reaction initiation) was 0.383 and the “turbidity (630 nm)” value ([3]; ferulic acid 100 ppm, 180 min after reaction initiation) was 0.247. The “turbidity (630 nm)” value ([3]; ferulic acid 300 ppm, 0 min after reaction initiation) was 0.579, the “turbidity (630 nm)” value ([3]; ferulic acid 300 ppm, 10 min after reaction initiation) was 0.56 and the “turbidity (630 nm)” value ([3]; ferulic acid 300 ppm, 20 min after reaction initiation) was 0.547. The “turbidity (630 nm)” value ([3]; ferulic acid 300 ppm, 30 min after reaction initiation) was 0.530, the “turbidity (630 nm)” value ([3]; ferulic acid 300 ppm, 40 min after reaction initiation) was 0.520 and the “turbidity (630 nm)” value ([3]; ferulic acid 300 ppm, 50 min after reaction initiation) was 0.499. The “turbidity (630 nm)” value ([3]; ferulic acid 300 ppm, 60 min after reaction initiation) was 0.466, the “turbidity (630 nm)” value ([3]; ferulic acid 300 ppm, 90 min after reaction initiation) was 0.422 and the “turbidity (630 nm)” value ([3]; ferulic acid 300 ppm, 120 min after reaction initiation) was 0.354. For the same compound, the “turbidity (630 nm)” value ([3]; ferulic acid 300 ppm, 180 min after reaction initiation) was 0.22, the “turbidity (630 nm)” value ([3]; ferulic acid 600 ppm, 0 min after reaction initiation) was 0.586 and the “turbidity (630 nm)” value ([3]; ferulic acid 600 ppm, 10 min after reaction initiation) was 0.552. For the same compound, the “turbidity (630 nm)” value ([3]; ferulic acid 600 ppm, 20 min after reaction initiation) was 0.545, the “turbidity (630 nm)” value ([3]; ferulic acid 600 ppm, 30 min after reaction initiation) was 0.526 and the “turbidity (630 nm)” value ([3]; ferulic acid 600 ppm, 40 min after reaction initiation) was 0.515. For the same compound, the “turbidity (630 nm)” value ([3]; ferulic acid 600 ppm, 50 min after reaction initiation) was 0.506, the “turbidity (630 nm)” value ([3]; ferulic acid 600 ppm, 60 min after reaction initiation) was 0.477 and the “turbidity (630 nm)” value ([3]; ferulic acid 600 ppm, 90 min after reaction initiation) was 0.447. The “turbidity (630 nm)” value ([3]; ferulic acid 600 ppm, 120 min after reaction initiation) was 0.379, the “turbidity (630 nm)” value ([3]; ferulic acid 600 ppm, 180 min after reaction initiation) was 0.246 and the “germination induction versus concentration” value ([3]; ferulic acid of 10 to 600 ppm) was “germination was inducted at any concentration to the same extent”.
